Data published in ChEMBL document CHEMBL1201862, “PubChem BioAssay data set” (2004).
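In this assay, cells in 96-well plates receive the compound at five concentrations for 48 hours. Endpoints are linearly interpolated between the surrounding concentrations. GI50 marks 50% less growth.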 Activity calls are given as the source filed them. Cut-off read from the data, not from the text of the source: active = GI50 up to about 1.1 µM and inactive = higher.

Experiments:
Assay in all cases: NCI-60 cell line screen, 48 h
Malme-3M = test system: Malme-3M
SN12C = test system: SN12C
HCT-15 = test system: HCT-15
UO-31 = test system: UO-31
RPMI-8226 = test system: RPMI-8226
HOP-92 = test system: HOP-92
SNB-75 = test system: SNB-75
SK-MEL-5 = test system: SK-MEL-5
SK-MEL-2 = test system: SK-MEL-2
SF-295 = test system: SF-295
MOLT-4 = test system: MOLT-4
OVCAR-5 = test system: OVCAR-5
SNB-19 = test system: SNB-19
K562 = test system: K562
SW-620 = test system: SW-620
UACC-62 = test system: UACC-62
HL-60 = test system: HL-60
TK-10 = test system: TK-10
U-251 = test system: U-251
CCRF-CEM = test system: CCRF-CEM

Compound: COc1cccc(C2c3cc4c(cc3OC(N3CCOCC3)C2C)OCO4)c1 (stereo not drawn)
- GI50 (Malme-3M): 10.5 µM (inactive)
- GI50 (SN12C): 24.3 µM (inactive)
- GI50 (HCT-15): 6.31 µM
- GI50 (UO-31): 12.8 µM (inactive)
- GI50 (RPMI-8226): > 100 µM (inactive)
- GI50 (HOP-92): 25.5 µM (inactive)
- GI50 (SNB-75): 28.3 µM (inactive)
- GI50 (SK-MEL-5): 4.37 µM (inactive)
- GI50 (SK-MEL-2): 12.2 µM (inactive)
- GI50 (SF-295): 9.64 µM (inactive)
- GI50 (MOLT-4): 2.7 µM (inactive)
- GI50 (OVCAR-5): 27 µM (inactive)
- GI50 (SNB-19): 20.5 µM (inactive)
- GI50 (K562): 3.1 µM (inactive)
- GI50 (SW-620): 3.19 µM (inactive)
- GI50 (UACC-62): 8.47 µM (inactive)

Compound: COc1ccc(-c2cs/c(=N\c3ccccc3)n2CCCN(C)C)cc1
- GI50 (SN12C): 33.7 µM (inactive)
- GI50 (HCT-15): 24.8 µM
- GI50 (UO-31): 12.4 µM (inactive)
- GI50 (RPMI-8226): 24.5 µM (inactive)
- GI50 (HOP-92): 26.3 µM (inactive)
- GI50 (SNB-75): 4.44 µM (inactive)
- GI50 (SK-MEL-2): 19.8 µM (inactive)
- GI50 (SF-295): 13 µM (inactive)
- GI50 (HL-60): 5.58 µM (inactive)
- GI50 (TK-10): 14.2 µM (inactive)
- GI50 (MOLT-4): 16.5 µM (inactive)
- GI50 (U-251): 43.4 µM (inactive)
- GI50 (OVCAR-5): 14.8 µM (inactive)
- GI50 (SNB-19): 19.2 µM (inactive)
- GI50 (CCRF-CEM): 21.1 µM (inactive)
- GI50 (SW-620): > 10 µM (inactive)
- GI50 (UACC-62): 15.1 µM (inactive)

Compound: N=c1n(C(=O)N2CCCC2)c2cc(Cl)ccc2n1C1=NCCN1
- GI50 (Malme-3M): 99.8 µM (inactive)
- GI50 (SN12C): 70.5 µM (inactive)
- GI50 (HCT-15): 40.6 µM
- GI50 (RPMI-8226): 15.7 µM (inactive)
- GI50 (HOP-92): 15.2 µM (inactive)
- GI50 (SK-MEL-5): 83 µM (inactive)
- GI50 (SK-MEL-2): 33.1 µM (inactive)
- GI50 (SF-295): > 100 µM (inactive)
- GI50 (HL-60): 38.8 µM (inactive)
- GI50 (TK-10): 86.5 µM (inactive)
- GI50 (MOLT-4): 41.7 µM (inactive)
- GI50 (U-251): 83.2 µM (inactive)
- GI50 (OVCAR-5): > 100 µM (inactive)
- GI50 (SNB-19): > 100 µM (inactive)
- GI50 (CCRF-CEM): 41.7 µM (inactive)
- GI50 (K562): 40.6 µM (inactive)
- GI50 (SW-620): 52.6 µM (inactive)
- GI50 (UACC-62): > 100 µM (inactive)

Compound: COc1ccc(NC(=O)C(=O)NNC(=O)c2sc(NNC(C)=O)nc2C)c([N+](=O)[O-])c1
- GI50 (Malme-3M): > 100 µM (inactive)
- GI50 (SN12C): > 100 µM (inactive)
- GI50 (HCT-15): 91.6 µM
- GI50 (UO-31): > 100 µM (inactive)
- GI50 (RPMI-8226): 65.9 µM (inactive)
- GI50 (HOP-92): > 100 µM (inactive)
- GI50 (SK-MEL-5): > 100 µM (inactive)
- GI50 (SK-MEL-2): > 100 µM (inactive)
- GI50 (SF-295): > 100 µM (inactive)
- GI50 (HL-60): 42.7 µM (inactive)
- GI50 (TK-10): > 100 µM (inactive)
- GI50 (MOLT-4): 36 µM (inactive)
- GI50 (U-251): > 100 µM (inactive)
- GI50 (OVCAR-5): > 100 µM (inactive)
- GI50 (SNB-19): > 100 µM (inactive)
- GI50 (CCRF-CEM): 24.2 µM (inactive)
- GI50 (K562): 37.1 µM (inactive)
- GI50 (SW-620): 35.6 µM (inactive)
- GI50 (UACC-62): 82.6 µM (inactive)

Compound: COc1nc(N=P(c2ccccc2)(c2ccccc2)c2ccccc2)cc(=O)n1C
- GI50 (SN12C): > 100 µM (inactive)
- GI50 (HCT-15): > 100 µM
- GI50 (UO-31): > 100 µM (inactive)
- GI50 (RPMI-8226): > 100 µM (inactive)
- GI50 (HOP-92): > 100 µM (inactive)
- GI50 (SNB-75): 54.8 µM (inactive)
- GI50 (SK-MEL-5): > 100 µM (inactive)
- GI50 (SK-MEL-2): > 100 µM (inactive)
- GI50 (SF-295): > 100 µM (inactive)
- GI50 (HL-60): > 100 µM (inactive)
- GI50 (TK-10): > 100 µM (inactive)
- GI50 (MOLT-4): > 100 µM (inactive)
- GI50 (U-251): > 100 µM (inactive)
- GI50 (OVCAR-5): > 100 µM (inactive)
- GI50 (SNB-19): > 100 µM (inactive)
- GI50 (CCRF-CEM): > 100 µM (inactive)
- GI50 (K562): > 100 µM (inactive)
- GI50 (SW-620): > 100 µM (inactive)
- GI50 (UACC-62): > 100 µM (inactive)

Compound: CCOC(=O)c1sc2nc(SC)nc(N3CCCCC3)c2c1N
- GI50 (Malme-3M): > 100 µM (inactive)
- GI50 (SN12C): > 100 µM (inactive)
- GI50 (HCT-15): > 100 µM
- GI50 (UO-31): > 100 µM (inactive)
- GI50 (RPMI-8226): > 100 µM (inactive)
- GI50 (HOP-92): > 100 µM (inactive)
- GI50 (SNB-75): > 100 µM (inactive)
- GI50 (SK-MEL-5): > 100 µM (inactive)
- GI50 (SK-MEL-2): > 100 µM (inactive)
- GI50 (SF-295): > 100 µM (inactive)
- GI50 (TK-10): > 100 µM (inactive)
- GI50 (MOLT-4): > 100 µM (inactive)
- GI50 (U-251): > 100 µM (inactive)
- GI50 (OVCAR-5): > 100 µM (inactive)
- GI50 (SNB-19): > 100 µM (inactive)
- GI50 (K562): > 100 µM (inactive)
- GI50 (SW-620): > 100 µM (inactive)
- GI50 (UACC-62): > 100 µM (inactive)

Compound: CC1CC(c2ccccc2)=Nc2ccccc2S1 (stereo not drawn)
- GI50 (SN12C): > 100 µM (inactive)
- GI50 (HCT-15): > 100 µM
- GI50 (UO-31): > 100 µM (inactive)
- GI50 (RPMI-8226): 68.5 µM (inactive)
- GI50 (HOP-92): > 100 µM (inactive)
- GI50 (SNB-75): > 100 µM (inactive)
- GI50 (SK-MEL-5): > 100 µM (inactive)
- GI50 (SK-MEL-2): > 100 µM (inactive)
- GI50 (SF-295): > 100 µM (inactive)
- GI50 (HL-60): 58.9 µM (inactive)
- GI50 (TK-10): > 100 µM (inactive)
- GI50 (MOLT-4): 77.8 µM (inactive)
- GI50 (U-251): 44.1 µM (inactive)
- GI50 (OVCAR-5): > 100 µM (inactive)
- GI50 (SNB-19): > 100 µM (inactive)
- GI50 (CCRF-CEM): 34.7 µM (inactive)
- GI50 (K562): 79.4 µM (inactive)
- GI50 (SW-620): > 100 µM (inactive)
- GI50 (UACC-62): > 100 µM (inactive)

Compound: CCc1ncc(C(C)(O)c2ccccc2)n1Cc1ccccc1 (stereo not drawn)
- GI50 (Malme-3M): 41 µM (inactive)
- GI50 (SN12C): 21.7 µM (inactive)
- GI50 (HCT-15): 41.5 µM
- GI50 (UO-31): 55.1 µM (inactive)
- GI50 (RPMI-8226): 32.3 µM (inactive)
- GI50 (HOP-92): 67.3 µM (inactive)
- GI50 (SNB-75): 48.6 µM (inactive)
- GI50 (SK-MEL-5): 17.8 µM (inactive)
- GI50 (SK-MEL-2): 70.8 µM (inactive)
- GI50 (SF-295): > 100 µM (inactive)
- GI50 (TK-10): 33.5 µM (inactive)
- GI50 (MOLT-4): 22.5 µM (inactive)
- GI50 (U-251): 34.6 µM (inactive)
- GI50 (OVCAR-5): 98.6 µM (inactive)
- GI50 (SNB-19): 42.4 µM (inactive)
- GI50 (CCRF-CEM): 48.9 µM (inactive)
- GI50 (K562): 33.4 µM (inactive)
- GI50 (SW-620): 31.6 µM (inactive)
- GI50 (UACC-62): 20.9 µM (inactive)

Compound: Cn1c(=O)c(Cl)c(N=[N+]=[N-])c2ccccc21
- GI50 (Malme-3M): 68.9 µM (inactive)
- GI50 (SN12C): 56.5 µM (inactive)
- GI50 (HCT-15): > 100 µM
- GI50 (UO-31): > 100 µM (inactive)
- GI50 (HOP-92): 84.1 µM (inactive)
- GI50 (SNB-75): 25.8 µM (inactive)
- GI50 (SK-MEL-5): 65.5 µM (inactive)
- GI50 (SK-MEL-2): > 100 µM (inactive)
- GI50 (SF-295): > 100 µM (inactive)
- GI50 (TK-10): > 100 µM (inactive)
- GI50 (MOLT-4): 23.3 µM (inactive)
- GI50 (U-251): > 100 µM (inactive)
- GI50 (OVCAR-5): > 100 µM (inactive)
- GI50 (SNB-19): > 100 µM (inactive)
- GI50 (CCRF-CEM): 55.7 µM (inactive)
- GI50 (K562): 47.1 µM (inactive)
- GI50 (SW-620): > 100 µM (inactive)
- GI50 (UACC-62): 68.1 µM (inactive)

Compound: CC(O)(P(=O)(O)O)P(=O)(O)OCC(O)CN1CCOCC1 (stereo not drawn)
- GI50 (Malme-3M): > 100 µM (inactive)
- GI50 (HCT-15): > 100 µM
- GI50 (UO-31): > 100 µM (inactive)
- GI50 (RPMI-8226): > 100 µM (inactive)
- GI50 (HOP-92): > 100 µM (inactive)
- GI50 (SF-295): > 100 µM (inactive)
- GI50 (HL-60): > 100 µM (inactive)
- GI50 (TK-10): > 100 µM (inactive)
- GI50 (MOLT-4): > 100 µM (inactive)
- GI50 (U-251): > 100 µM (inactive)
- GI50 (OVCAR-5): > 100 µM (inactive)
- GI50 (SNB-19): > 100 µM (inactive)
- GI50 (CCRF-CEM): > 100 µM (inactive)
- GI50 (K562): > 100 µM (inactive)
- GI50 (SW-620): > 100 µM (inactive)
- GI50 (UACC-62): > 100 µM (inactive)

Compound: OC1(c2ccc(Cl)cc2)c2ccc3ccccc3c2C2=N[C@H]3CCCC[C@@H]3N21 (stereo partly drawn)
- GI50 (Malme-3M): 0.284 µM (active)
- GI50 (SN12C): 38.5 µM (inactive)
- GI50 (HCT-15): 4.75 µM
- GI50 (UO-31): 5.73 µM (inactive)
- GI50 (RPMI-8226): 7.73 µM (inactive)
- GI50 (HOP-92): 16.9 µM (inactive)
- GI50 (SK-MEL-5): 37 µM (inactive)
- GI50 (SK-MEL-2): 38.5 µM (inactive)
- GI50 (SF-295): 3.64 µM (inactive)
- GI50 (HL-60): 5.69 µM (inactive)
- GI50 (TK-10): 1.52 µM (inactive)
- GI50 (MOLT-4): 8.99 µM (inactive)
- GI50 (U-251): 5.82 µM (inactive)
- GI50 (OVCAR-5): 3.76 µM (inactive)
- GI50 (SNB-19): 36.8 µM (inactive)
- GI50 (CCRF-CEM): 21.7 µM (inactive)
- GI50 (K562): 13.2 µM (inactive)
- GI50 (SW-620): 16.8 µM (inactive)
- GI50 (UACC-62): 7.93 µM (inactive)
